One series has as its system BALB/c male mice. To be noted: mouse, in vivo, po, 100 mg/kg/day. An excerpt:
Toxicity of compounds of the present invention was examined.

The subject of series [1] is intraperitoneal eosinophilia. In words: Action on intraperitoneal eosinophilia model mice (sensitized with swine roundworm extract). Conditions: oral, once a day, 10 times, BALB/c mice. Format: in vivo, BALB/c male mice. Here is the method: Using five animals per group of BALB/c male mice (about 25 g in body weight), 0.11 mL of physiological saline containing 0.1 mg of swine roundworm extract was administered into the peritoneal cavity of each mouse to sensitize. The same treatment was repeated 7 days after the administration and, 3 days thereafter, each animal was sacrificed by phlebotomy, 3 mL of physiological saline containing 1% dipotassium ethylenediaminetetraacetate (EDTA) was administered by intraperitoneal injection and its abdominal region was massaged for about 30 seconds. The abdominal region was incised to collect intraperitoneal fluid which was subsequently centrifuged at 130 x g for 10 minutes, and the resulting precipitate was mixed with 500 µl of fetal calf serum containing 1% EDTA to prepare a cell suspension. A portion of the cell suspension was daubed on a slide glass using a spinner to carry out Diff-Quik staining, and then total leukocytes and eosinophils were counted to calculate the ratio of eosinophils in the total leukocytes. The number of total leukocytes in the cell suspension was measured using an automatic blood cell counter. The number of eosinophils in the cell suspension was calculated by multiplying the ratio of eosinophils in the total leukocytes by the number of total leukocytes.
Each of the compounds to be tested was suspended in 5% acacia aqueous solution and orally administered once a day for a total of 10 times starting immediately after the initial sensitization (test compound-administered group). Also, 5% acacia aqueous solution was orally administered to a group of mice in which sensitization and administration of test compounds were not carried out (non-treated group) and another group of mice in which sensitization was carried out but test compounds were not administered (control group).
The dose of each compound to be tested and the intraperitoneal eosinophilia inhibition rate calculated by the following formula are shown in Table 1. Eosinophilia inhibition rate (%) = {1 - (test compound- administered group - non-treated group)/(control group - non- treated group)} x 100 [formula]

For the molecule `COC(=O)CC(=O)c1cccc2nc(CCc3ccccc3)[nH]c12` [Example 2, methyl 3-(2-(2-phenylethyl)benzimidazol-4-yl)-3-oxopropanoate], the mortal case result in the series with BALB/c male mice is given as “no mortal case was found”. In addition, in series [1] (dose 100 mg/kg/day), the “Intraperitoneal eosinophilia inhibition rate (%)” value worked out at 42%.
`CC(=O)OCC(=O)[C@@]1(O)CC[C@H]2[C@@H]3CCC4=CC(=O)C=C[C@]4(C)[C@H]3[C@@H](O)C[C@@]21C` [Prednisolone acetate, 11β,17α,21-trihydroxypregna-1,4-diene-3,20-dione 21-acetate, reference compound]: the “Intraperitoneal eosinophilia inhibition rate (%)” value in series [1] (dose 10 mg/kg/day) is 61 - 85%.
For `CCOC(=O)CC(O)c1cccc2nc(CCc3ccccc3)[nH]c12` (stereo not drawn) [Example 6, ethyl 3-(2-(2-phenylethyl)benzimidazol-4-yl)-3-hydroxypropanoate], the “Intraperitoneal eosinophilia inhibition rate (%)” value in series [1] (dose 3 mg/kg/day) worked out at 35%; in series [1] (dose 10 mg/kg/day), 59%.
Consider `COC(=O)CC(O)c1cccc2nc(CCc3ccccc3)[nH]c12` (stereo not drawn) [Example 5, methyl 3-(2-(2-phenylethyl)benzimidazol-4-yl)-3-hydroxypropanoate], for which, in the series with BALB/c male mice, the mortal case entry is listed as “no mortal case was found”. For the same molecule, the “Intraperitoneal eosinophilia inhibition rate (%)” value in series [1] (dose 100 mg/kg/day) is recorded as 62%.
Consider `CCOC(=O)CC(=O)c1cccc2c1nc(CCc1ccccc1)n2C` [Example 10, ethyl 3-(1-methyl-2-(2-phenylethyl)benzimidazol-4-yl)-3-oxopropanoate], for which the mortal case result in the series with BALB/c male mice was “no mortal case was found”.
As for `O=C(O)CC(=O)c1cccc2nc(CCc3ccccc3)[nH]c12` [Example 1, 3-(2-(2-phenylethyl)benzimidazol-4-yl)-3-oxopropanoic acid], in the series with BALB/c male mice, the mortal case entry is recorded as “no mortal case was found”. Besides, the “Intraperitoneal eosinophilia inhibition rate (%)” value turned out to be 67% in series [1] (dose 3 mg/kg/day) and 78% in series [1] (dose 30 mg/kg/day).
As to `CCOC(=O)CC(=O)c1cccc2nc(CCc3ccccc3)[nH]c12` [Example 3, ethyl 3-(2-(2-phenylethyl)benzimidazol-4-yl)-3-oxopropanoate], the “Intraperitoneal eosinophilia inhibition rate (%)” value in series [1] (dose 10 mg/kg/day) worked out at 67%; in series [1] (dose 30 mg/kg/day), 75%.
On to `O=C(O)CC(O)c1cccc2nc(CCc3ccccc3)[nH]c12` (stereo not drawn) [Example 7, 3-(2-(2-phenylethyl)benzimidazol-4-yl)-3-hydroxypropanoic acid], for which, in the series with BALB/c male mice, the mortal case result is listed as “no mortal case was found”. Also, the “Intraperitoneal eosinophilia inhibition rate (%)” value in series [1] (dose 0.3 mg/kg/day) amounted to 55%.

Values taken from EP0936218B1, “BENZIMIDAZOLE DERIVATIVES” (MOCHIDA PHARMACEUTICAL CO., LTD., priority 1996, dated 1998).
